Legend:
[1] = test system: MCF-7, a breast cancer cell line; assay: Impedance assay (xCELLigence, Cell Index), MCF-7; assay type: cell-based; details: for effect on cell impedance: MCF-7, 100 μM to 1.5 μM
Experimental: (§1) PTA or Compound 10 were added ranging from 100 μM to 1.5 μM to the cells after […]. The apparent IC50 after 72 hours of drug treatment was calculated and is shown in the inset of each graph of the triplicate impedance measurement per concentration. The DMSO vehicle control is shown as dark red line.
(§2) MCF-7 cells were maintained in RPMI media supplemented with 10% fetal bovine serum. HepG2 cells were maintained in Dulbecco's modified Eagle medium (DMEM, Invitrogen) media supplemented with 10% fetal bovine serum and 1×MEM non-essential amino acids. For cytotoxicity experiments, cells were plated on T-75 flasks and grown until they reached at 70-80% confluency.
(§3) Cell proliferation was monitored in real-time cell electronic sensing (xCELLigence System, Acea Biosciences) through gold microelectrode arrays on the bottom of 96 E-Plates. 100 μl of corresponding culture media was added into each well of 96 E-Plates, which inserted into the station and background measurement was taken. Then, cells (5,000 cells/well in 100 μl) were seeded into 96 E-Plates containing 100 μl medium/well. After about 20 hours, 200 μl medium was discarded and replaced with 100 μl of fresh medium containing indicated amounts of compounds for each well. In the xCELLigence System the changes in cell number are detected as modifications in the measurement of electrical impedance and are represented as Cell Index (CI).
(§4) To define the range of metastasizing cancer cell lines susceptible to PTA derivatives of the present invention, we can use the HUVEC electrical-impedance assay. Invasive tumor cell lines are monitored through electric impedance measurements of human umbilical vein endothelial cells (HUVEC) monolayers in the presence of PTA derivatives. […] The invasion potential of the tumor cell is measured by the change in cell impedance as the HUVEC monolayer junctions are compromised by the invading tumor cells. Cells can be monitored over multiple days while the real-time impedance is recorded. […]

[2] = test system: HepG2, a hepatocarcinoma cell line; assay: Impedance assay (xCELLigence, Cell Index), HepG2; assay type: cell-based; details: for effect on cell impedance: HepG2, 100 μM to 1.5 μM
Experimental: as §1, §2, §3, §4

hLC3 = assay: SPR binding of purified hLC3 to PTA immobilized on an SPR chip; parameters: species or system human; details: read-out: affinity of hLC3 to PTA on the SPR chip
From the text: (§5) FIGS. 2A-2C depict the properties of the PTA-binding site on hLC3. 2A) Energy-minimized docking pose of PTA to hLC3. The pyridinylthiazolamine ringsystem predominantly binds to the W-site of hLC3. 2B) Conservation of amino acids between hLC3 and Plasmodium Atg8. Shown in yellow sticks is the bound peptide of Atg3. The W-Site is highly conserved, whereas the L-site is less conserved, explaining the lower affinity of hLC3 to PTA (FIGS. 2A, 2B adapted from Hain et al. 2013). 2C) Direct binding interaction of purified hLC3 or PfAtg8 to PTA immobilized on a SPR chip to determine their respective affinities.
(§6) In comparing the sequence conservation of this W-/L-site between PfAtg8 and hLC3, it is apparent that the W-site has maintained a higher degree of conservation, as indicated by the magenta patch in FIG. 2B. To test whether or not the W-/L-site of Atg8 was indeed the interaction area to which our small molecules bind, we performed SPR binding studies with different Atg8-homologs, essentially mimicking mutational studies in the environment of the W-/L-site. This allowed us to explore the key features of the binding site in a manner that was much more efficient than introducing multiple single point mutations for each protein of interest at a time.
(§7) SPR studies were performed on PfAtg8 and hLC3 binding to the PTA molecule immobilized on an SPR chip. […]

PfAtg8 [3] = target: T1, PfAtg8 (Plasmodium falciparum, UniProt Q8IJK2); assay: SPR binding of purified PfAtg8 to PTA immobilized on an SPR chip; details: comparison of hLC3 with PfAtg8
T1 sequence (Q8IJK2 1-124): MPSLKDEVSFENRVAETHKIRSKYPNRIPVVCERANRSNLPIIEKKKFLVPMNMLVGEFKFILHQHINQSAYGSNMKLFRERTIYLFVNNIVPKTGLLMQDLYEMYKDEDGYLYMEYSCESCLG
From the text: as §5, §6, §7

[4] = test system: hLC3 with hAtg3 interaction; assay: hLC3/hAtg3 protein-protein interaction in vitro; assay type: binding, human
Experimental: Our structural understanding of how the hLC3 binds the PTA-scaffold combined with surface plasmon resonance (SPR)-interaction studies, has enabled the inventors to design the PTA-analogs of the present invention with low Koff-rates. […] These new PTA-analogs are tested in SPR-based assays with purified recombinant hLC3 and hAtg3 to assess their ability to prevent the protein-protein interaction. Newly emerging molecules from our efforts are subjected to dose-dependent cell based screening with our cancer line collection.
About 120 PTA-homologs were identified in the PubChem database (pubchem.ncbi.nlm.nih.gov) that are available through commercial vendors. In a first assessment to determine which homologs to focus on initially, virtual library screening was performed with the known hLC3 structures (1UGM, 3ECI, 3WAL, 3WAO). Comparing the docking results from different structures of hLC3 allowed us to assemble a short list of nine high priority compounds (compounds 1-9). […] Two complementary assays will be utilized, the first assesses the small molecule's ability to block the protein-protein interaction of hLC3 with hAtg3. The second assay is used to directly measure the binding of the small molecule to immobilized hLC3 on an SPR chip, which will allow us to draw conclusions about the physical interaction between the two binding partners.

HCT8 colon cancer cells = assay: PTA-susceptibility of HCT8 colon cancer cells: microscopy and anti-LC3 Western blot; assay type: cell-based, human; details: 24 hours
From the text: FIG. 4 provides an anti-LC3 Western blot of PTA treated HCT8 colon cancer cells with corresponding Coomassie stained 4-20% SDS-PAGE. The arrows indicate the band used for quantification with ImageJ. The SDS gel indicates approximate equal amounts were loaded per lane.
To be functional in autophagy processes, hLC3 undergoes two critical activation processes. First a C-terminal glycine has to be exposed through proteolytic cleavage by the […] protease Atg4. Second, a lipid, phosphatidylethanolamine (PE), is conjugated to the C-terminal glycine residue resulting in hLC3-PE (hLC3-II). The inventors previously discovered 4-formyl-N-(4-pyridin-2-yl-1,3-thiazol-2-yl)benzamide (PTA) as an autophagy inhibitor in their studies on the plasmodial system in search of protein-protein interaction inhibitors of the PfAtg8-PfAtg3 interaction, the homologous system in the malaria parasite. The lipidated form of either Atg8 or hLC3 (hLC3-II) can be resolved from the unlipidated form (hLC3-I) using SDS-PAGE due to their different migration speeds. Specific commercial antibodies for hLC3 detection were used in these studies to quantify the two species via Western blot in treated and untreated cancer cell lines.
We used a DMSO-vehicle control. All experiments were carried out at 1% final DMSO concentration for 24 hours at 37° C. and 5% CO2. […] The DMSO control sample was trypsinized to detach the cells from the culture dish. All cells were collected and spun down before resuspending them in SDS-loading dye for SDS-PAGE and Western blot analysis. Commercial monoclonal antibodies directed against hLC3 (D3U4C Rabbit mAB) and GAPDH (14C10 Rabbit mAB) as loading control were used. The Western blot clearly distinguishes between the un-lipidated (hLC3-I) and lipidated (hLC3-II) form by their migration speed in the SDS-gel (FIG. 4). The lipidated form migrates faster in an SDS-gel due to its additional negative charge from the conjugated phospholipid. […] 0.5% DMSO will be used as a vehicle control and 33 nM Wortmannin as a positive control for autophagy inhibition.

HC-04 liver cells = assay: Cytotoxicity in HC-04 liver cells; assay type: cell-based; details: 30 μM PTA for 96 hours
PfAtg8 [5] = target: PfAtg8 (Plasmodium falciparum, UniProt Q8IJK2); assay: Surface plasmon resonance (SPR): direct binding of purified PfAtg8 to PTA immobilized on an SPR chip; details: W-/L-site, FIG. 3, read-out: PfAtg8 Kd (binding affinity to PTA)
From the text: as §5
To maintain the identical view, residue differences were painted onto the PfAtg8 structure. Residues in the proximity of the W-/L-site of hLC3 lead to lower binding affinities of our current molecule targeting the Atg8-Atg3 interaction.
In comparing the sequence conservation of this W-/L-site between PfAtg8 and hLC3, it is apparent that the W-site has maintained a higher degree of conservation, as indicated by the magenta patch in FIG. 2B. To test whether or not the W-/L-site of Atg8 was indeed the interaction area to which our small molecules bind, we performed SPR binding studies with different Atg8-homologs, essentially mimicking mutational studies in the environment of the W-/L-site. […]

SMILES: COC(OC)c1ccc(C(=O)Nc2ncc(-c3ccccn3)s2)cc1 [Compound 10]
- effect on cell impedance [1]: concentration dependent effect
- effect on cell impedance [2]: concentration dependent effect

SMILES: O=Cc1ccc(C(=O)Nc2nc(-c3ccccn3)cs2)cc1 [PTA, 4-formyl-N-(4-pyridin-2-yl-1,3-thiazol-2-yl)benzamide]
- Kd (hLC3): 18 µM
- binding affinity to immobilized PTA, hLC3 versus PfAtg8 (PfAtg8 [3]): decrease of binding affinity for hLC3 versus PfAtg8
- prevention of protein-protein interaction of hLC3 with hAtg3 [4]: specifically prevents the protein-protein interaction of hLC3 with hAtg3
- cell appearance by microscopy at lowest concentration (HCT8 colon cancer cells; HCT8, 6.75 μM PTA): a few patches of attached cells still visible
- hLC3 lipidation (hLC3-I / hLC3-II bands) in Western blot (HCT8 colon cancer cells; HCT8, PTA treated): accumulation of the slower migrating hLC3-I band is visible
- cell appearance by microscopy (HCT8 colon cancer cells; HCT8, about 100 μM to 6.25 μM PTA, 1% DMSO): detached, blebbing cells with a concentration dependent phenotype
- cytotoxic effect / tolerability (HC-04 liver cells): well tolerated
- IC50 ([1]; MCF7a, MCF-7, impedance, 100 μM to 1.5 μM, 72 hours, read-out: apparent IC50 after 72 hours of drug treatment): ~18 µM
- effect on cell impedance [1]: concentration dependent effect
- effect on cell impedance [2]: concentration dependent effect
- IC50 ([2]; Homo sapiens, HepG2, impedance, 100 μM to 1.5 μM, 72 hours, read-out: apparent IC50 after 72 hours of drug treatment): ~18 µM
- Kd (PfAtg8 [5]): 0.54 µM
